Results reported in ChEMBL document CHEMBL1201862, “PubChem BioAssay data set” (2004).
The source made the active and inactive calls.

Columns and labels:
[1] = Luminescence Cell-Based Dose Response HTS to Identify Activators of Luciferase Translation or Activity in H4 […] Cells. [Related pubchem assays: 1829 (Project Summary), 1814 (Primary HTS)]; type: functional
[2] = target: T1, Zinc finger protein mex-5 (Caenorhabditis elegans, UniProt Q9XUB2); experiment: potency of MEX-5 RNA-binding blockers – biochemical, C. elegans, fluorescence polarization, dose response (AID 1960)
T1 sequence (Q9XUB2 whole entry): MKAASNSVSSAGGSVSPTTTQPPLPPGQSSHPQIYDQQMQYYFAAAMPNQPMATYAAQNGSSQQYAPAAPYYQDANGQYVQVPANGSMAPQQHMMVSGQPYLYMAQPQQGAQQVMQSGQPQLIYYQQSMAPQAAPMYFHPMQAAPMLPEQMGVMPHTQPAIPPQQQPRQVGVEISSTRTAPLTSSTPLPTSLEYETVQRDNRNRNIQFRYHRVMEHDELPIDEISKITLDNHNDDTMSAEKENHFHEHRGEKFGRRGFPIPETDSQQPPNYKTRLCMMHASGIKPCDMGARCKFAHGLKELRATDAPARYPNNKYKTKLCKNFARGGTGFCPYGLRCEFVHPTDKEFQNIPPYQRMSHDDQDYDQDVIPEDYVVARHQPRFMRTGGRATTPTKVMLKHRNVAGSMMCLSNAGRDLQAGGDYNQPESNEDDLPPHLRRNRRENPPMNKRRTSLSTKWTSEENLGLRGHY

[3] = target: T2, RNA-binding protein pos-1 (Caenorhabditis elegans, UniProt G5EF15); experiment: disruptors of C. elegans POS-1 RNA interaction – biochemical, fluorescence polarization, dose response (AID 1964);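 also: purified POS-1 fused to maltose binding protein made in E. coli; potency of compounds blocking POS-1 binding to fluorescent RNA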
T2 sequence (G5EF15 whole entry): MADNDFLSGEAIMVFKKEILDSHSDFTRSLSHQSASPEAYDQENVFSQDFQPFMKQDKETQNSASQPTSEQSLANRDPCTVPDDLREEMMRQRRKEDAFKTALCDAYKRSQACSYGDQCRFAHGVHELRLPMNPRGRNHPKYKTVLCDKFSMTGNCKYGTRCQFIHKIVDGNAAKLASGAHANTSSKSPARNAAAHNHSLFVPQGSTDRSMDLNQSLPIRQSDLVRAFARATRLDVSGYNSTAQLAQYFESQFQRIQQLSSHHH

Troponin, cardiac muscle = Troponin, cardiac muscle (Homo sapiens, UniProt P19429+P45379+P63316); experiment: Fluorescence-based biochemical high throughput dose response assay for activators of the calcium sensitivity of cardiac Regulated Thin Filaments (RTF). [Related pubchem assays (depositor defined):AID493008, AID493018, AID504382, AID504383]; type: protein-complex assay
H4 = experiment: Luminescence Cell-Based Dose Response HTS to Identify Activators of 5'UTR Stem-Loop Driven Prion Protein mRNA Translation in H4 Neuroglioblastoma Cells. [Related pubchem assays: 1829 (Project Summary), 1814 (Primary HTS)]; type: functional; conditions: Homo sapiens
[4] = Luminescence Cell-Based Dose Confirmation HTS to Identify Activators of 5'UTR Stem-Loop Driven Alpha-Synuclein mRNA Translation in H4 Neuroglioblastoma Cells. [Related pubchem assays: 1829 (Project Summary), 1814 (Primary HTS)]; type: functional
INS1 = experiment: INS-1E survival protection against cytokine death – cell-based, luminescence, retest, dose response (AID 449756); type: functional; conditions: Rattus norvegicus;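 also: cell death triggered by IL-1 beta plus TNF-alpha plus IFN-gamma mixture; protective hits raise ATP signal compared with cytokine alone wells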
Beta-galactosidase = Beta-galactosidase (Escherichia coli, UniProt Q8VNN2); experiment: detection-enzyme interference by beta-gal modulators – biochemical, E. coli enzyme, set 3, artefact control for CCR6 antagonist project, dose response (AID 504712); type: functional
[5] = target: Heat shock protein HSP 90-alpha (Homo sapiens, UniProt P07900); type: functional, organism-based
[6] = HEK-293T viability loss after treatment – luminescence, T-cell screen hits, cytotoxicity control for TCR NF-kB inhibitor project, dose response (AID 489026); type: functional, cell-based;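 also: cells exposed to compound about 14 hours before the viability readout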
Cytochrome P450 3A4 = Cytochrome P450 3A4 (Homo sapiens, UniProt P08684); conditions: Potency;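 also: confirmatory qHTS run detecting inhibitors and substrates of CYP3A4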
[7] = target: T3, Neuropeptides B/W receptor type 1 (Homo sapiens, UniProt P48145); experiment: Fluorescence-based dose response cell-based high throughput screening assay to identify antagonists of the G-protein coupled receptor 7 (GPR7). [Related pubchem assays: 1952 (Screening assay (GPR7 antagonists).), 1880 (Summary AID.)]; type: functional
T3 sequence (P48145 whole entry): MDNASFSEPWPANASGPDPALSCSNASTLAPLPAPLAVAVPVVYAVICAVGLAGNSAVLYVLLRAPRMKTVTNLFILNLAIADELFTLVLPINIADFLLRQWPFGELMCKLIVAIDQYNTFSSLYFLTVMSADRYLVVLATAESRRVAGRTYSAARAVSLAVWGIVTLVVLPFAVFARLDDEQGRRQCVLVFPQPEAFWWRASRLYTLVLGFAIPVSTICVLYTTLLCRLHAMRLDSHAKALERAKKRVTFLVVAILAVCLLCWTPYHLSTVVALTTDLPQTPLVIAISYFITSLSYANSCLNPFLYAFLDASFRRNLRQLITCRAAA

[8] = target: Melanin-concentrating hormone receptor 1 (Homo sapiens, UniProt Q99705); experiment: Fluorescence-based counterscreen for antagonists of the G-protein coupled receptor 7 (GPR7): cell-based high throughput dose response assay to identify antagonists of the melanin-concentrating hormone receptor 1 (MCHR1).; type: functional
H9c2 = experiment: cells; type: functional, cell-based; conditions: Rattus norvegicus, H9c2, Myocardium;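 also: confirmatory concentration-response retest of ultra-high-throughput screening hits for modulation of myocardial damage; cell death induced by hydrogen peroxide oxidative stress; compound pretreatment for 60 min then peroxide exposure for 2 h; potency is for protecting the cells against peroxide damage rather than for killing them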
[9] = bead-based luminescence quenchers, dual-tagged ARNT – biochemical, AlphaScreen, cherry-pick, artefact control for ARNT-TACC3 interaction inhibitor project, dose response (AID 651705); type: functional;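 also: AlphaScreen bead proximity signal that flags compounds interfering with the detection technology; potency reflects signal decrease which marks the compound as an assay artifact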
[10] = target: T4, Microphthalmia-associated transcription factor (Homo sapiens, UniProt O75030); experiment: reducers of TRPM1 reporter luminescence, concentration series – cell-based, SK-MEL-5, cherry-picked, set 3, MITF inhibitor project, dose response (AID 493073); type: functional;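 also: SK-MEL-5 melanoma cells with luciferase driven by the MITF target TRPM1 promoter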
T4 sequence (O75030 whole entry): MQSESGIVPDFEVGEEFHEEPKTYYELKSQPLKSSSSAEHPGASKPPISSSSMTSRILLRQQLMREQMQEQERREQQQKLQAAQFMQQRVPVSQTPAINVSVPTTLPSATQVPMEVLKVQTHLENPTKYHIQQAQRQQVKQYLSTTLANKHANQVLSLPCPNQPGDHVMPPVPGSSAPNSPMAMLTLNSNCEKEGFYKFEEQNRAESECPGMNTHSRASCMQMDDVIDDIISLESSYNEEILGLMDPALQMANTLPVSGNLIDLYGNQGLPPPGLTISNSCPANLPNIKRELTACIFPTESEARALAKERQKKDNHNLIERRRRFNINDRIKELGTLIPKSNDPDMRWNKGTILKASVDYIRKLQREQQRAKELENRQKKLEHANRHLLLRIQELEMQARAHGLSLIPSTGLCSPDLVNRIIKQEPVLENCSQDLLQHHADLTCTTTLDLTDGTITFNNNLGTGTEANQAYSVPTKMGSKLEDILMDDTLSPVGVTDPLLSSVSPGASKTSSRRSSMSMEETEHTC

[11] = target: T5, Voltage-gated N-type calcium channel alpha-1B subunit/Amyloid beta A4 precursor protein-binding family A member 1 (Homo sapiens, UniProt Q00975+Q02410); type: protein assay
[12] = target: T5, Voltage-gated N-type calcium channel alpha-1B subunit/Amyloid beta A4 precursor protein-binding family A member 1; type: protein assay; remark: listed apart in the source
Cytochrome P450 2C9 = Cytochrome P450 2C9 (Homo sapiens, UniProt P11712)
[13] = target: DNA dC->dU-editing enzyme APOBEC-3G (Homo sapiens, UniProt Q9HC16); experiment: Dose Response confirmation of small molecule APOBEC3G DNA Deaminase Inhibitors via a fluorescence-based single-stranded DNA deaminase assay. [Related pubchem assays (depositor defined):AID493012, AID493028]; type: functional
[14] = Luminescence Cell-Based Dose Response HTS to Identify Inhibitors of 5'UTR Stem-Loop Driven Prion Protein mRNA Translation in H4 Neuroglioblastoma Cells. [Related pubchem assays: 1827 (Project Summary), 1813 (Primary HTS)]; type: functional
[15] = alpha-synuclein stem-loop luciferase translation blockers – H4 neuroglioma cells, luminescence, confirmation (AID 1988); type: functional, cell-based
[16] = luciferase reporter signal suppression in cells – H4 neuroglioma cells, luminescence, dose response (AID 1990); type: functional, cell-based
[17] = target: T6, Carboxy-terminal domain RNA polymerase II polypeptide A small phosphatase 1 (Homo sapiens, UniProt Q9GZU7); experiment: CTDSP1 inhibitors, concentration-response, biochemical, absorbance readout, ultra-high-throughput screen actives (AID 540297); type: functional
T6 sequence (Q9GZU7 whole entry): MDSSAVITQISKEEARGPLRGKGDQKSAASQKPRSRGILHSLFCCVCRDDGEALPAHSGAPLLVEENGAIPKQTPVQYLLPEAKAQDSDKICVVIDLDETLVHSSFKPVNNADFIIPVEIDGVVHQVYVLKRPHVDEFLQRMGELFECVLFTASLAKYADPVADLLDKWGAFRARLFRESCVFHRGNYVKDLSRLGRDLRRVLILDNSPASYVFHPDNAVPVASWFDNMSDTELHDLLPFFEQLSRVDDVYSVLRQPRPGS

Nonstructural protein 1 = Nonstructural protein 1 (Influenza A virus, UniProt Q194T2); type: functional, Influenza A virus (A/California/07/2009(H1N1))

Melanin-concentrating hormone receptor 1, sequence (Q99705 whole entry): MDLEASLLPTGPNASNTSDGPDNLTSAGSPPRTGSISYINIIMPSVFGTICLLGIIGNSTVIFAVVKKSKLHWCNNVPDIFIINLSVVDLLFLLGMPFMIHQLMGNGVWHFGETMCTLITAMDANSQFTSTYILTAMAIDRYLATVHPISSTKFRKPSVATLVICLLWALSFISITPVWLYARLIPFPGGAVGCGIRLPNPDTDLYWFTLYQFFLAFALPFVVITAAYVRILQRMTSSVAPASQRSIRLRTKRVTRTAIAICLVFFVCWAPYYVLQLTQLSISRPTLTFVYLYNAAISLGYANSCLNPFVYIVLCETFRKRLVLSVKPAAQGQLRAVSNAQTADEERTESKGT
Beta-galactosidase, sequence (Q8VNN2 whole entry): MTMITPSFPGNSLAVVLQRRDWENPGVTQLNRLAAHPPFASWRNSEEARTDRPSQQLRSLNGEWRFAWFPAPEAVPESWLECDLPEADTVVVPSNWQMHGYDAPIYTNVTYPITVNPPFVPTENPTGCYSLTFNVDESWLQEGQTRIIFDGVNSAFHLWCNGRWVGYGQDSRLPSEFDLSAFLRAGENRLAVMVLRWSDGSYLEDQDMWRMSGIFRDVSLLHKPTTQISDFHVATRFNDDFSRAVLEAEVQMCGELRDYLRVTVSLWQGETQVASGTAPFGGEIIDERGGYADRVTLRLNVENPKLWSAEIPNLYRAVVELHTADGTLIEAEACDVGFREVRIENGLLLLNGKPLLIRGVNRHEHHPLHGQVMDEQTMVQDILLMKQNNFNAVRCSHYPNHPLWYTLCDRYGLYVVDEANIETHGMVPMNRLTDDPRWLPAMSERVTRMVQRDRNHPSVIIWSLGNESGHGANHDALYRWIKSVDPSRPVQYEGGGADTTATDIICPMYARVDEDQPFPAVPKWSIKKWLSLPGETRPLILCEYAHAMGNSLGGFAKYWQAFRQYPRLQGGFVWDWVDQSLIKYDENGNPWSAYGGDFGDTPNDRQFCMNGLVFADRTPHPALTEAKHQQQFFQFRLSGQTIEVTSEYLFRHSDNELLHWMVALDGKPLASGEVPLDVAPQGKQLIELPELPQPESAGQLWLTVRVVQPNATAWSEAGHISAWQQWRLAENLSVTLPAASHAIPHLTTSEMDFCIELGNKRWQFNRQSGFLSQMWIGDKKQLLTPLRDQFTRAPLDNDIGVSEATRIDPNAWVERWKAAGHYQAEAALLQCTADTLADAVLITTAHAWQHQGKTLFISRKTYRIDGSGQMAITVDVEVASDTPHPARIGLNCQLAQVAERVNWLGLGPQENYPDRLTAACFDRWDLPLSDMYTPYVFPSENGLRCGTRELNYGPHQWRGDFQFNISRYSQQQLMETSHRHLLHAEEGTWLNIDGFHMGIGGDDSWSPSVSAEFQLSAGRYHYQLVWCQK
T5 sequence (Q00975 whole entry): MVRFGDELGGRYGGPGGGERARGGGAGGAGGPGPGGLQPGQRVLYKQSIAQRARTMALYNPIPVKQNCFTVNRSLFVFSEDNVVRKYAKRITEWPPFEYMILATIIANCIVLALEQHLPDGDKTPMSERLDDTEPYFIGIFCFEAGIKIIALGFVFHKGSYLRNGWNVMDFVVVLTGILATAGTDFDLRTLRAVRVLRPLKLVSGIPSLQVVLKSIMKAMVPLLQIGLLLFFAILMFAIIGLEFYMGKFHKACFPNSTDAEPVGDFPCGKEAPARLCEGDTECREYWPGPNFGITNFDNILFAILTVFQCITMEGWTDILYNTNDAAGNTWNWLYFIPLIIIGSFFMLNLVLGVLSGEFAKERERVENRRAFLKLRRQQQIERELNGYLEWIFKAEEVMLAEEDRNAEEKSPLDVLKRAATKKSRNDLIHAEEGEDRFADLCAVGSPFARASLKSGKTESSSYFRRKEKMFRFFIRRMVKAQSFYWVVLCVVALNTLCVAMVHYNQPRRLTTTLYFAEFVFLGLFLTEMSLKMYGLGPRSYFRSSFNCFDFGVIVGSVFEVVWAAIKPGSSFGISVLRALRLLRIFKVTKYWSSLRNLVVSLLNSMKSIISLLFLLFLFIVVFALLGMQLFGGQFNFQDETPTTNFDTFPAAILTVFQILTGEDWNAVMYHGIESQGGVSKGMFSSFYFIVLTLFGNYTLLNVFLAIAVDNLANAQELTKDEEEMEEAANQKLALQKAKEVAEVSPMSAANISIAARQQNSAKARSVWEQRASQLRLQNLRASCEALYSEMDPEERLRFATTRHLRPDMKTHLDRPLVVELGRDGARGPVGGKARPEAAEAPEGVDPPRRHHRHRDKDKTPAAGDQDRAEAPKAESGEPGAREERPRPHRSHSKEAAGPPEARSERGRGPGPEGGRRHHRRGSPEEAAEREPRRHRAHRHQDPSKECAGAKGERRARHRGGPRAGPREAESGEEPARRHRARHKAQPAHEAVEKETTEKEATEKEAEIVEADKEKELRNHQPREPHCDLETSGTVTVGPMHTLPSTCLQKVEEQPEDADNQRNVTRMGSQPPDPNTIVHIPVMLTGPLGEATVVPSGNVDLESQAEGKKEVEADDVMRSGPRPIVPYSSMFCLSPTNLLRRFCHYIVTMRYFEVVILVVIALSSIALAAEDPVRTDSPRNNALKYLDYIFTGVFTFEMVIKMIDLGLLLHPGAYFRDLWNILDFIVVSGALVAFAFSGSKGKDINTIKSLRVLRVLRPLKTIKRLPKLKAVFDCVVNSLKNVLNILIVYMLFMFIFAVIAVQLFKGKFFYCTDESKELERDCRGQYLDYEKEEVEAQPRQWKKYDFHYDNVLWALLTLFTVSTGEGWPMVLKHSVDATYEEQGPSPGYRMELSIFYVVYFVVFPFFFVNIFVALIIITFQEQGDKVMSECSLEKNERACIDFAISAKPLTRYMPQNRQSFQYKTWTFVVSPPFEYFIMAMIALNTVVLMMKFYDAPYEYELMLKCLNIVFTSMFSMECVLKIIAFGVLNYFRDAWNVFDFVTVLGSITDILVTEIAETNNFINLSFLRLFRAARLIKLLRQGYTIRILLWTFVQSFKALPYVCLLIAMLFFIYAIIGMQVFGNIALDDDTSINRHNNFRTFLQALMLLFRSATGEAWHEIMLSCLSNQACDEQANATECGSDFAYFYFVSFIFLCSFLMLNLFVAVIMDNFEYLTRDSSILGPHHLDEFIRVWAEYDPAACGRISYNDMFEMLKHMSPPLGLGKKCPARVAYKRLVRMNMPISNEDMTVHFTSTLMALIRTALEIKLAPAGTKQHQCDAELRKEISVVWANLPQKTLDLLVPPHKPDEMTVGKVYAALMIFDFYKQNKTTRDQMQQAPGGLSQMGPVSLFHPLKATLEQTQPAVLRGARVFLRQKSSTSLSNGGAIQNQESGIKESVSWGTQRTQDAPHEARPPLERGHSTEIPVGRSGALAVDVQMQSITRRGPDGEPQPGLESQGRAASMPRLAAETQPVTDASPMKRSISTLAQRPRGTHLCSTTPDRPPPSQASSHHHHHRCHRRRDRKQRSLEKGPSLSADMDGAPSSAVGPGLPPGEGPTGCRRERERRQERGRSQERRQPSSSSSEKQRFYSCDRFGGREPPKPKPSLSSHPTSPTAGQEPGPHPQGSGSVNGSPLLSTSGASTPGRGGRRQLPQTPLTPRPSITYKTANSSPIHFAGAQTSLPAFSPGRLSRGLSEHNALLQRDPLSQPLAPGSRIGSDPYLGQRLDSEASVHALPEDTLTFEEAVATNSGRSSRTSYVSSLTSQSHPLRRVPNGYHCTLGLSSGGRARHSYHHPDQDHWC
T5 sequence (Q02410 whole entry): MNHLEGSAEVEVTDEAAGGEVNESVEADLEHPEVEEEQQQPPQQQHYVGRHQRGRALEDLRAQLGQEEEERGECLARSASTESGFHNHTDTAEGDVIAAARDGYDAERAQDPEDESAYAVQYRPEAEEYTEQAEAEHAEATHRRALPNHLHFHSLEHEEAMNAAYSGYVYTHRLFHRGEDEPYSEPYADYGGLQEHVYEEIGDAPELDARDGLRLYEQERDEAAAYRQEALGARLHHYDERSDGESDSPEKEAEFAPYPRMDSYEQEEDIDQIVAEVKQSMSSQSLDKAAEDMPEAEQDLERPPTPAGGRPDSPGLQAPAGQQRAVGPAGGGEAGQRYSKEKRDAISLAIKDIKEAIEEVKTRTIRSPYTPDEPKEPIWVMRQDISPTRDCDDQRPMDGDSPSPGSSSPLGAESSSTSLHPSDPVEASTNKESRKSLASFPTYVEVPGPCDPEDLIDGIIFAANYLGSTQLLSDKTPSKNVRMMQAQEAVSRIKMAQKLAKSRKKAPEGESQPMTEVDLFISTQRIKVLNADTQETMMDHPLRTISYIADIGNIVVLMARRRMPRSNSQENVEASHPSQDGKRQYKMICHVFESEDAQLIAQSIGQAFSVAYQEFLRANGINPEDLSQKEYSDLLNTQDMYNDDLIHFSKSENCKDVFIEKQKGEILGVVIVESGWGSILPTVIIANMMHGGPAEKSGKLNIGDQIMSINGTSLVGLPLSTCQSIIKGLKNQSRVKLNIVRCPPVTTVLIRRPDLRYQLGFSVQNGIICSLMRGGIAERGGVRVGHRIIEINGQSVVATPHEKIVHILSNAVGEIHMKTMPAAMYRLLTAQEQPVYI
Cytochrome P450 3A4, sequence (P08684 whole entry): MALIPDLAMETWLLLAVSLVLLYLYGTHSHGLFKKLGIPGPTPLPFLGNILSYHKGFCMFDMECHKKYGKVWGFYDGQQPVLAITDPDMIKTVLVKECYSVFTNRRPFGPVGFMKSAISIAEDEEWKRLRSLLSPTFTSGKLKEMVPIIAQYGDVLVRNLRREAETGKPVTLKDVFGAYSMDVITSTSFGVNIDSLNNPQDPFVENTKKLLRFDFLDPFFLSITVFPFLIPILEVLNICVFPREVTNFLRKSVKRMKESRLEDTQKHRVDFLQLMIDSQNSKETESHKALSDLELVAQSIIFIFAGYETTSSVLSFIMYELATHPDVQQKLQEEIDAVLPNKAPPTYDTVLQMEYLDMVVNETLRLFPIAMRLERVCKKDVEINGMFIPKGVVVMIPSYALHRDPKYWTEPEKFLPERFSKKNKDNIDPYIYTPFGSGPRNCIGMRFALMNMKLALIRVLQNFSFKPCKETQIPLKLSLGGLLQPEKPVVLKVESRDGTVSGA

Compound: Cc1cc(/C=C2\SC(=S)N(Cc3ccco3)C2=O)c(C)n1-c1cccnc1
- EC50 [1]: 119 µM (active)
- EC50 [2]: 20.2 µM (inconclusive)
- EC50 [3]: 11.3 µM (inconclusive)
- EC50 (Troponin, cardiac muscle): > 2.65 µM (active)
- EC50 (H4): 3.71 µM (active)
- EC50 [4]: 45.2 µM (active)

Compound: Cc1ccc(O)c(N=Nc2nccs2)c1
- AC50 (INS1): 1.15 µM (active)
- IC50 (Beta-galactosidase): > 66.6 µM (inactive)
- AC50 [5]: 2.1 µM (active)
- IC50 [6]: > 80 µM (inactive)

Compound: COc1ccc(-c2oc3cc(O[C@@H]4OC(CO)C(O)C(O)C4O)c(OC)c(O)c3c(=O)c2OC)cc1O (stereo not given in full)
- AC50 (Cytochrome P450 3A4): 25.1 µM (inconclusive)

Compound: CCOC(=O)CSc1nnc(-c2ccc(S(=O)(=O)NCc3cccs3)cc2)o1
- IC50 [7]: > 43.8 µM (not active)
- IC50 [8]: > 43.8 µM (not active)

Compound: CC(Oc1ccccc1)C(=O)Nc1nc(-c2ccccn2)cs1 (stereo not given)
- IC50 (H9c2): > 79 µM (inactive)
- AC50 [9]: 84.7 µM (active)
- IC50 (Beta-galactosidase): > 66.6 µM (inactive)
- AC50 [10]: 14 µM (active)

Compound: COc1ccccc1NS(=O)(=O)c1cc(NC(=O)c2ccncc2)ccc1N1CCCC1
- IC50 [11]: 29 µM (active)
- IC50 [12]: > 50 µM (inactive)

Compound: COc1ccc2nc(C)c3cc(C)oc3c2c1
- EC50 (Troponin, cardiac muscle): > 71.4 µM (inactive)

Compound: Cc1cc(C)cc(N2C(=O)CC(Sc3nnnn3-c3ccccc3)C2=O)c1 (stereo not given)
- IC50 (Beta-galactosidase): > 66.6 µM (inactive)
- AC50 (Cytochrome P450 2C9): inconclusive

Compound: N#CC1=C2SCN(c3ccc(F)cc3)CN2C(=O)CC1c1cccc(F)c1 (stereo not given)
- IC50 [11]: 1.59 µM (active)
- IC50 [12]: > 50 µM (inactive)

Compound: O=[N+]([O-])c1ccc(N2CCN(Cc3ccccc3)CC2)nc1
- IC50 [7]: 33.4 µM (not active)
- IC50 [8]: 22.8 µM (not active)

Compound: CC(Sc1ccc2nnc(-c3ccc(F)cc3)n2n1)C(=O)O (stereo not given)
- IC50 [13]: 21 µM (active)

Compound: C=C1C(=O)O[C@@H]2C3OC3(C)CC/C=C(\C)CC[C@@H]12 (stereo not given in full)
- AC50 (Cytochrome P450 3A4): 31.6 µM (inconclusive)

Compound: O=C(c1ccc2c(c1)OCO2)N(CC1CCCO1)C1(C(=O)NC2CCCC2)CCCCC1 (stereo not given)
- IC50 [7]: > 43.8 µM (not active)
- IC50 [8]: > 43.8 µM (not active)

Compound: C=COc1ccc(N2C(=O)c3ccccc3OC2C)cc1 (stereo not given)
- EC50 (Troponin, cardiac muscle): > 71.4 µM (inactive)

Compound: COc1cc2c(cc1OC)-c1c(OC)c(OC)c(C=O)c3c1[C@H](C2)N(C)CC3
- AC50 (Cytochrome P450 3A4): 7.94 µM (inconclusive)

Compound: CCCN(CCC)CCOc1cc(C)ccc1C(C)C
- IC50 [7]: 10.9 µM (not active)
- IC50 [8]: 6.6 µM (active)
- EC50 [14]: > 120 µM (not active)
- EC50 [15]: > 120 µM (not active)
- EC50 [16]: > 120 µM (not active)

Compound: CC(=O)c1ccc(NC(=O)c2ccc(NC(=O)c3ccco3)cc2)cc1
- IC50 [13]: 25.3 µM (active)

Compound: CCN(CC)CCCn1c(-c2ccccc2)nc2c(N(CCOC)CCOC)nc(C)nc21
- AC50 (Cytochrome P450 3A4): 20 µM (inconclusive)

Compound: CC(/C=C/c1ccco1)=N\NC(=O)c1cccnc1
- IC50 [11]: 9.19 µM (active)
- IC50 [12]: 17.8 µM (active)
- IC50 [17]: 21.3 µM (active)

Compound: C/C(=N\NC(=O)C1CCCN(S(=O)(=O)c2ccccc2)C1)c1ccccn1 (stereo not given)
- AC50 [9]: 77.8 µM (active)
- IC50 (Nonstructural protein 1): 22.2 µM (active)
- IC50 (Beta-galactosidase): > 66.6 µM (inactive)
